Measurements from patent US11319303B2 (WIGEN BIOMEDICINE TECHNOLOGY (SHANGHAI) CO., LTD., priority 2017, dated 2022).
Structures can show the parent of a compound that is named as a salt.

Target: LC3B (Homo sapiens, UniProt Q9GZQ8)
Assay: Fluorescence Polarization (FP) Assay: displacement of FITC-labeled peptide from GST-LC3B
Assay type: binding
Settings: Fluorescence Polarization assay; GST-LC3B 180 nM, FITC-labeled peptide 18 nM, 25° C.; read-out: IC50
Experimental: The compounds of the present invention for regulating the autophagy-related protein LC3B were tested by Fluorescence Polarization (FP) Assay.
Fluorescence Polarization (FP) Assay Test

IC50, < 3 µM:
O=C1CC(c2cccc3[nH]ccc23)CC(=O)C1=CO (stereo not drawn) [Compound 459, 2-(hydroxy-methylene)-5-(1H-indol-4-yl)cyclo-hexane-1,3-dione lithium salt]
O=C1CC(c2cccc3[nH]ccc23)CC(=O)C1=CO (stereo not drawn) [Compound 460, 2-(hydroxy-methylene)-5-(1H-indol-4-yl)cyclo-hexane-1,3-dione sodium salt]
O=C1CC(c2cccc3[nH]ccc23)CC(=O)C1=CO (stereo not drawn) [Compound 461, 2-(hydroxy-methylene)-5-(1H-indol-4-yl)cyclo-hexane-1,3-dione potassium salt]
